{"source": "patent US9241920B2", "about": "“Inhibition of c-Myc ubiquitination to prevent cancer initiation and progression” (NEW YORK UNIVERSITY, priority 2011, dated 2016)", "key": {"[1]": {"tested_on": "human CD34+ cells (CML patients) depleted of Fbw7", "experiment": "Apoptosis (annexin V staining) of Fbw7-depleted human CML CD34+ cells", "format": "cell-based", "settings": "human CD34+ cells after depletion of Fbw7; decrease of c-Myc activity", "description": "Viable bone marrow mononuclear cells from two treatment-naïve patients in the chronic phase of CML were obtained from AllCells. To examine the role of FBW7 in the maintenance of LICs for human CML, bone marrow mononuclear cells were transfected with 300 nM FBW7 siRNAs (Stealth Select RNAi siRNA, Invitrogen) by electroporation with the use of an Amaxa Nucleofector II device (Lonza) according to the manufacture's instructions. The transfected cells were then stained with antibodies to human CD34 (8G12), CD3 (SK7), CD16 (3G8), CD19 (SJ25C1), CD20 (L27), CD14 (MφP9), and CD56 (NCAM16.2) (BD Biosciences). CD3, CD16, CD19, CD20, CD14, and CD56 were used as lineage markers. CD34^+Lin^− cells were purified by FACS and cocultured with OP-9 cells for 7 days. For assays of apoptosis, cells were collected after 7 days of culture, stained for cell surface markers, further incubated for 15 min with annexin V (BD Biosciences) and then analyzed by flow cytometry."}, "[2]": {"tested_on": "human CD34+Lin- cells (CML patients) depleted of Fbw7", "experiment": "Colony forming unit assay of Fbw7-depleted human CML CD34+ cells", "format": "cell-based", "settings": "human CD34+ cells after depletion of Fbw7; decrease of c-Myc activity", "description": "For the in vitro CFU experiments, mice received 5 intra-peritoneal (IP) injections of poly(I:C) at a dose of 20 ug/g, and LSK cells were purified 10 days post poly(I:C). LSK cells were purified and infected with Bcr-Abl-NGFR or Bcr-Abl-GFP retrovirus as described above. Bcr-Abl^+ lineage negative cells were sorted 72 hours after the first infection and 1000 cells were seeded into cytokine-supplemented methylcellulose medium (MethoCult 3434, Stem Cell Technologies). Colonies were counted 7 days after they were seeded and 4000 cells were re-plated and colonies were counted after another 7 days (14 days total). For human CFU assay, cells were collected after 7 days of culture, and 1×10^3 CD34^+Lin^− cells were transferred to Methocult medium (MethoCult GF H4435, StemCell Technologies). The number of colonies was counted 1 week after plating.\nViable bone marrow mononuclear cells from two treatment-naïve patients in the chronic phase of CML were obtained from AllCells. […] For assays of apoptosis, cells were collected after 7 days of culture, stained for cell surface markers, further incubated for 15 min with annexin V (BD Biosciences) and then analyzed by flow cytometry."}}, "data": [{"smiles": "CCc1ccc(/C=C2/SC(=S)NC2=O)cc1", "note": "[10058-F4]", "values": [{"measurement": "apoptosis of Fbw7-depleted cells", "setting": "[1]", "result": "rescued cells from apoptosis"}, {"measurement": "colony forming ability of Fbw7-depleted cells", "setting": "[2]", "result": "rescued"}]}]}
